According to ChEMBL document CHEMBL6153107, “Derailment of the Biosynthesis via an Acid-Mediated Intramolecular Cyclo-rearrangement Leads to a Novel Cytochalasin Skeleton” (J Nat Prod, 2025):
Activity calls are given as the source filed them. No cut-off for these calls is given here.

Key:
HeLa [1] = test: Cytotoxicity against human HeLa cells assessed as inhibition of cell growth incubated for 48 hrs by DAPI staining based high-content imaging analysis; assay type: functional
RKO [2] = test: Cytotoxicity against human RKO cells assessed as inhibition of cell growth incubated for 48 hrs by DAPI staining based high-content imaging analysis; assay type: functional
HeLa [3] = test: Binding affinity to F-actin in human HeLa cells assessed as disruption of cytoskeleton organization by measuring transforming regular fibrous into punctuate structure at 27.8 uM incubated for 48 hrs by tetramethylrhodamine-phalloidin staining based confocal laser scanning microscopy; assay type: cell-based
RKO [4] = test: Binding affinity to F-actin in human RKO cells assessed as disruption of cytoskeleton organization by measuring transforming regular fibrous into punctuate structure at 16.7 uM incubated for 48 hrs by tetramethylrhodamine-phalloidin staining based confocal laser scanning microscopy; assay type: cell-based
HeLa [5] = test: Induction of cell cycle arrest in human HeLa cells assessed as accumulation of cells G2/M phase incubated for 48 hrs by DAPI staining based high-content imaging analysis; assay type: functional
RKO [6] = test: Induction of cell cycle arrest in human RKO cells assessed as accumulation of cells at G2/M phase incubated for 48 hrs by DAPI staining based high-content imaging analysis; assay type: functional
HeLa [7] = test: Binding affinity to F-actin in human HeLa cells assessed as disruption of cytoskeleton organization by measuring transforming regular fibrous into punctuate structure at 12.3 uM incubated for 48 hrs by tetramethylrhodamine-phalloidin staining based confocal laser scanning microscopy; assay type: cell-based
RKO [8] = test: Binding affinity to F-actin in human RKO cells assessed as disruption of cytoskeleton organization by measuring transforming regular fibrous into punctuate structure at 11.1 uM incubated for 48 hrs by tetramethylrhodamine-phalloidin staining based confocal laser scanning microscopy; assay type: cell-based
HeLa [9] = test: Binding affinity to F-actin in human HeLa cells assessed as disruption of cytoskeleton organization by measuring transforming regular fibrous into punctuate structure at 50 uM incubated for 48 hrs by tetramethylrhodamine-phalloidin staining based confocal laser scanning microscopy; assay type: cell-based
RKO [10] = test: Binding affinity to F-actin in human RKO cells assessed as disruption of cytoskeleton organization by measuring transforming regular fibrous into punctuate structure at 50 uM incubated for 48 hrs by tetramethylrhodamine-phalloidin staining based confocal laser scanning microscopy; assay type: cell-based
HeLa [11] = test: Binding affinity to F-actin in human HeLa cells assessed as disruption of cytoskeleton organization by measuring transforming regular fibrous into punctuate structure at 0.9 uM incubated for 48 hrs by tetramethylrhodamine-phalloidin staining based confocal laser scanning microscopy; assay type: cell-based
RKO [12] = test: Binding affinity to F-actin in human RKO cells assessed as disruption of cytoskeleton organization by measuring transforming regular fibrous into punctuate structure at 0.8 uM incubated for 48 hrs by tetramethylrhodamine-phalloidin staining based confocal laser scanning microscopy; assay type: cell-based
HeLa [13] = test: Binding affinity to F-actin in human HeLa cells assessed as disruption of cytoskeleton organization by measuring transforming regular fibrous into punctuate structure at 2 uM incubated for 48 hrs by tetramethylrhodamine-phalloidin staining based confocal laser scanning microscopy; assay type: cell-based
RKO [14] = test: Binding affinity to F-actin in human RKO cells assessed as disruption of cytoskeleton organization by measuring transforming regular fibrous into punctuate structure at 1.6 uM incubated for 48 hrs by tetramethylrhodamine-phalloidin staining based confocal laser scanning microscopy; assay type: cell-based
RKO [15] = test: Binding affinity to F-actin in human RKO cells assessed as disruption of cytoskeleton organization by measuring transforming regular fibrous into punctuate structure at 33.5 uM incubated for 48 hrs by tetramethylrhodamine-phalloidin staining based confocal laser scanning microscopy; assay type: cell-based

Row | SMILES | IC50 (HeLa [1]) [µM] | IC50 (RKO [2]) [µM] | Activity (HeLa [3]) | Activity (RKO [4]) | Activity (HeLa [5]) | Activity (RKO [6]) | Activity (HeLa [7]) | Activity (RKO [8]) | Activity (HeLa [9]) | Activity (RKO [10]) | Activity (HeLa [11]) | Activity (RKO [12]) | Activity (HeLa [13]) | Activity (RKO [14]) | Activity (RKO [15])
1 | CC1=C[C@H]2[C@H]3OC(=O)[C@@]24C(=N[C@@H](Cc2ccccc2)[C@@H]4[C@@H]1C)C[C@H]1[C@H]3C[C@H](C)C[C@@]1(C)O | 27.8 | 16.7 | Active | Active | Dose-dependent-effect | Dose-dependent-effect |  |  |  |  |  |  |  |  | 
2 | CC(=O)O[C@@H]1/C=C/[C@](C)(O)C[C@@H](C)C/C=C/[C@H]2C=C(C)[C@@H](C)[C@H]3[C@H](Cc4ccccc4)NC(=O)[C@]321 | 12.3 | 11.1 |  |  | Dose-dependent-effect | Dose-dependent-effect | Active | Active |  |  |  |  |  |  | 
3 | CC1=C[C@@H]2[C@@H](C[C@H](C)C1)[C@@H](O)[C@H]1C=C(C)[C@@H](C)[C@H]3[C@H](Cc4ccccc4)NC(=O)[C@]31[C@@H]2O | > 50 | 47.3 |  |  | Dose-dependent-effect | Dose-dependent-effect |  |  | Active | Active |  |  |  |  | 
4 | C=C1[C@@H](C)[C@H]2[C@H](Cc3ccccc3)NC(=O)[C@]23[C@H](OC(C)=O)/C=C/[C@](C)(O)C[C@@H](C)C/C=C/[C@H]3[C@@H]1O | 0.9 | 0.8 |  |  | Dose-dependent-effect | Dose-dependent-effect |  |  |  |  | Active | Active |  |  | 
5 | CC1=C[C@@H]2[C@@H]3[C@H](/C=C(/C)C[C@@H](C)C[C@H]3O)[C@@H](O)[C@]23C(=O)N[C@@H](Cc2ccccc2)[C@@H]3[C@@H]1C | > 50 | 45.2 |  |  | Dose-dependent-effect | Dose-dependent-effect |  |  | Active | Active |  |  |  |  | 
6 | CC1=C[C@@H]2/C=C/C[C@H](C)C[C@@](C)(O)/C=C/C(=O)[C@]23C(=O)N[C@@H](Cc2ccccc2)[C@@H]3[C@@H]1C | 2 | 1.6 |  |  | Dose-dependent-effect | Dose-dependent-effect |  |  |  |  |  |  | Active | Active | 
7 | CC1=C[C@@H]2/C=C/C[C@H](C)C[C@@](C)(O)/C=C/[C@@H](O)[C@]23C(=O)N[C@@H](Cc2ccccc2)[C@@H]3[C@@H]1C | > 50 | 33.5 |  |  | Dose-dependent-effect | Dose-dependent-effect |  |  | Active |  |  |  |  |  | Active
